From US20030187048A1, “Method for inhibiting skin lesion formation using histamine as the active ingredient” (priority 1991, published 2003)
Where “and” joins values, the source holds several entries; their conditions need not be identical. Identical values can stand only once. Like-named read-outs stand apart in the source and are kept apart here.

Columns and labels:
[1] = test system: aphthous ulcers (canker sores); conditions: 0.0067% IEP gel; aphthous stomatitis
Description: (§1) The composition of the present invention includes initial preparation of a gel base by adding 0.8% CARBOPOL 940, which is a vinyl polymer, to distilled water. This mixture was allowed to stand for several hours until the polymer was wetted and a gel was formed. This mixture then was blended by means of a ordinary high speed mixer, such as a Lightning Labmaster II until a homogenous mixture is formed. At this point, a neutralizing and emulsifying agent such as an amino alcohol was added, forming an emulsion. […] This composition then was applied topically to various types of lesions, as subsequently described. […] Propylparaben or methylparaben may be used as a preservative. For “unidose” dispensers containing only two to three drops, no preservatives are used, as it is known that preservatives in ophthalmic solutions frequently cause undesirable side effects. The term semi-synthetic water soluble polymer as used herein includes hydroxy methylcellulose or carboxy methylcellulose. Carbopol is widely available in different viscosities.

[2] = test system: herpetic stomatitis lesions (fever blisters or cold sores)
Description: as §1

[3] = test system: Varicella zoster (chickenpox) lesions; conditions: for Mean % Reduction In Healing Time per Lesion: compared to placebo gel; for Itching score / Local pain score: scale 0 to 5; for Mean Time to Lesion Healing: placebo patients 7 days
Description: Treatment consisted of topical application three times a day for a period of five days. […] The mean percent reduction in complete healing time per average pox lesion was evaluated grouping the two patients who received active gel concentrations together and comparing to the two patients receiving placebo gel.
Subjects were assigned randomly to one of three active ingredient levels being evaluated, 0.0%, 0.0067% and G.009% by weight of active ingredient.
Each patient was contacted daily for 5 days for his or her estimate of the symptomatic relief of any symptoms associated with Varicella zoster (chickenpox) as well as the patient's interpretation of total healing of the episode in addition to the patient's description of the lesions present. In an attempt to quantify responses, patients were asked to rate each symptom each day on a scale of 0 to 5 with 0 representing no evidence of the symptom and 5 representing to worst or most prominent evidence of the symptom ever for the patient. Subject compliance with the study regimen and the use of other medications was also assessed.
Lesions were monitored for the usual progression of the typical stages seen with Varicella zoster. Typical chickenpox begins as crops of small, red papules that almost immediately develop into clear, “tear drop” vesicles on an erythematous base which are usually not umbilicated. The lesions initially contain clear fluid, but within 24 hours the contents become cloudy. once this occurs, the vesicles are easily broken and become scabbed. Successive crops of lesions appear for 3 to 4 days.

[4] = test system: active herpes labialis lesions; conditions: 0.0275% gel
From the text: An additional gel concentration (0.0275%) was' used on two patients for active herpes labialis lesions.

[5] = test system: oral mucositis (stomatitis) secondary to chemotherapy; conditions: for Mean % Reduction In Symptom (discomfort with food/drink) / Mean Percent Reduction From Original Per Day / Mean % Reduction In Symptom: group mean
From the text: Prospective subjects were considered for the study if their mucositis (stomatitis) was diagnosed by their oncologist as secondary to their chemotherapy and if their oncologist recommended them as candidates for the study.
Patients were randomly assigned to one of three active ingredient levels being evaluated.
Following diagnosis and recommendation of oral mucositis patients by their oncologists, qualified participants were instructed to topically, intraorally apply one teaspoonful of their respective, randomly assigned gel by swishing and holding the gel in their mouth for 2 minutes and then expectorating the gel.
Evaluation of the extent of the oral mucous membrane involvement was based on each patient's estimate of this involvement (as a percentage) of the entire oral mucous membranes and each patient was contacted daily for this estimate as well as his or her estimate of the symptomatic relief of 5 common oral symptoms associated with mucositis (stomatitis) secondary to chemotherapy. In an attempt to quantify responses, patients were asked to rate each symptom each day an a scale of 0 to 5 with 0 representing no evidence of the symptom and 5 representing the worst or most vi prominent evidence of the symptom ever for the patient.
Patient compliance with the study regimen and the use of other medications or treatments was also evaluated.

[6] = 0.0067% IEP gel, herpes labialis

In the case of `NCCc1c[nH]cn1` [IEP, 1H-imidazole-4-ethanamine,phosphate], the “Burning, reduction after 1 app.” value [1] is reported as 20%, the “Burning, reduction after 1 day” value [1] is reported as 40% and the “Estimated number of applications needed to eliminate clinical symptoms” value [1] is reported as 9. For the same molecule, the “Pain, reduction after 1 app.” value [1] was 73%, the “Pain, reduction after 1 day” value [1] was 80% and the “Percentage decrease in healing time compared to untreated episode” value [1] was 67%. For the same molecule, the “Percentage of patients who experienced lesion abortion” value [1] was 67%, the “Size, reduction after 1 app.” value [1] was 23% and the “Size, reduction after 1 day” value [1] was 43%. For the same molecule, the “Swelling, reduction after 1 app.” value [1] was 20%, the “Swelling, reduction after 1 day” value [1] was 50% and the “Burning, reduction after 1 app.” value [2, 6] was 63%. For the same molecule, the “Burning, reduction after 1 day” value [2, 6] was 92%, the “Estimated number of applications needed to eliminate clinical symptoms” value [2, 6] was 5 and the “Itching, reduction after 1 app.” value [2, 6] was “%60”. The “Itching, reduction after 1 day” value [2, 6] was 97%, the “Pain, reduction after 1 app.” value [2, 6] was 58% and the “Pain, reduction after 1 day” value [2, 6] was 87%. The “Percentage decrease in healing time compared to untreated episode” value [2, 6] was 49%, the “Percentage of patients who experienced lesion abortion” value [2, 6] was 60% and the “Size, reduction after 1 app.” value [2, 6] was 10%. For the same molecule, the “Size, reduction after 1 day” value [2, 6] was 32%, the “Spreading, reduction after 1 app.” value [2, 6] was 40% and the “Spreading, reduction after 1 day” value [2, 6] was 62%. The “Swelling, reduction after 1 app.” value [2, 6] was “%27”, the “Swelling, reduction after 1 day” value [2, 6] was 72% and the “Fraction of total patients who experienced the abortion of lesions” value ([2]; 0.0067% gel applied at first sensation, both treatment groups (herpes labialis and aphthous ulcers)) was “Approximately two-thirds”. For the same molecule, the “Mean % Reduction In Healing Time per Lesion” value ([3]; 0.0067% IEP gel) was 50.0%, the Itching score ([3]; 0.0067% IEP gel, day 1) was 2 and the Local pain score ([3]; 0.0067% IEP gel, day 1) was 2. The Itching score ([3]; 0.0067% IEP gel, day 2) was 0, the Local pain score ([3]; 0.0067% IEP gel, day 2) was 1 and the Itching score ([3]; 0.0067% IEP gel, day 3) was 0. The Local pain score ([3]; 0.0067% IEP gel, day 3) was 0, the Itching score ([3]; 0.0067% IEP gel, day 4) was 0 and the Local pain score ([3]; 0.0067% IEP gel, day 4) was 0. For the same molecule, the Itching score ([3]; 0.0067% IEP gel, day 5) was 0, the Local pain score ([3]; 0.0067% IEP gel, day 5) was 0 and the “Mean Time to Lesion Healing” value ([3]; 0.0067% gel) was 3.5 days. The “Mean % Reduction In Healing Time per Lesion” value ([3]; 0.009% IEP gel) was 64.28%, the Itching score ([3]; 0.009% IEP gel, day 1) was 2 and the Local pain score ([3]; 0.009% IEP gel, day 1) was 3. It also gave an Itching score ([3]; 0.009% IEP gel, day 2) of 0, a Local pain score ([3]; 0.009% IEP gel, day 2) of 1 and an Itching score ([3]; 0.009% IEP gel, day 3) of 0. It also gave a Local pain score ([3]; 0.009% IEP gel, day 3) of 0, an Itching score ([3]; 0.009% IEP gel, day 4) of 0 and a Local pain score ([3]; 0.009% IEP gel, day 4) of 0. The Itching score ([3]; 0.009% IEP gel, day 5) was 0, the Local pain score ([3]; 0.009% IEP gel, day 5) was 0 and the “Mean Time to Lesion Healing” value ([3]; 0.009% gel) was 2.5 days. For the same molecule, the “Difference in mean percent reduction in complete healing time per lesion vs placebo” value ([3]; combined 0.0067% and 0.009% groups, p<0.05) was “significant”, the “Progression of lesion stages” value ([3]; lesions treated with 0.0067% and 0.009% gel) was “did not progress through the usual progression of lesions stages” and the Untoward reactions ([3]; topical gel 0.0067%, 0.009%, three times a day for five days) was “no untoward reactions”. The “Difference in lesion decay rates vs placebo gel” value ([4]; p<0.05) was “statistically significant”, the “Standardized Decay Rate/24 hrs” value ([4]; per patient) was 56.55 and 36.36 and the “Mean % Reduction In Symptom (discomfort with food/drink)” value ([5]; 0.0045% IEP gel) was 55.6%. For the same molecule, the “Mean Percent Reduction From Original Involvement Per Day” value ([5]; 0.0045% IEP gel, per patient) was 33.3% and 18.0% and 25.0%, the “Percent of Mouth that Lesions Occupy” value ([5]; 0.0045% gel, Day 4, per patient) was 0% and 25% and 1% and the “Percent of Mouth that Lesions Occupy” value ([5]; 0.0045% gel, Day 5, per patient) was 0%. For the same molecule, the “Percent of Mouth that Lesions Occupy” value ([5]; 0.0045% gel, Day 6, per patient) was 0% (2×) and 5%, the “Percent of Mouth that Lesions Occupy” value ([5]; 0.0045% gel, Day 7, per patient) was 0% and the “Mean Percent Reduction From Original Per Day” value ([5]; 0.0045% gel) was 25.4%. The “Mean % Reduction In Symptom (discomfort with food/drink)” value ([5]; 0.0275% IEP gel) was 52.8%, the “Mean Percent Reduction From Original Involvement Per Day” value ([5]; 0.0275% IEP gel, per patient) was 50.0% and 33.3% (2×) and the “Percent of Mouth that Lesions Occupy” value ([5]; 0.0275% gel, Day 1 of treatment, per patient) was 50% and 25% (2×). The “Percent of Mouth that Lesions Occupy” value ([5]; 0.0275% gel, Day 2, per patient) was 30% and 25% (2×), the “Percent of Mouth that Lesions Occupy” value ([5]; 0.0275% gel, Day 3, per patient) was 25% (2×) and 0% and the “Percent of Mouth that Lesions Occupy” value ([5]; 0.0275% gel, Day 4, per patient) was 0%. The “Percent of Mouth that Lesions Occupy” value ([5]; 0.0275% gel, Day 5, per patient) was 0%, the “Percent of Mouth that Lesions Occupy” value ([5]; 0.0275% gel, Day 6, per patient) was 0% and the “Percent of Mouth that Lesions Occupy” value ([5]; 0.0275% gel, Day 7, per patient) was 0%. For the same molecule, the “Mean Percent Reduction From Original Per Day” value ([5]; 0.0275% gel) was 38.9%, the “Difference in reduction of oral mucous membrane involvement vs placebo” value ([5]; 0.0275% vs placebo, p<.O1) was “highly statistically significant” and the “Mean % Reduction In Symptom” value ([5]; Table 9.7, 0.0045% gel) was 58.3%. The “Mean % Reduction In Symptom” value ([5]; Table 9.7, 0.0275% gel) was 83.3%, the “Mean Percent Reduction Per Day in Discomfort with Food/Drink” value ([5]; Table 9.7, 0.0275% gel, per patient) was 100.0% (2×) and 50.0% and the Untoward effects ([5]; in vivo) was “no untoward effects”.
